Where a name gives a salt, the structure may show the parent alone.
Legend:
[1] = treatment of hypercholesterolemia; Am J. Med. 2000:108:538-547; cited from earlier work
[2] = system: cerebral ischemia caused by middle-cerebral artery occlusion (MCAO); assay: Infarct volume after middle-cerebral artery occlusion (MCAO) in mice; type: in vivo; details: mouse, subcutaneous 2 or 20 mg/kg for 14 days before MCAO
Text: (§1) The studies were generally carried out according to the methods set forth in M. Endres et al., Stroke protection by 3-hydroxy-3-methylglutaryl (HMG)-CoA reductase inhibitors mediated by endothelial nitric oxide synthase, Proc. Natl. Acad. Sci. USA, 95:8880-8885 (1998). In many cases dementia is known to result from the cumulative neurodegenerative effects of strokes. These can be major strokes or sub-clinical strokes, and result in a heterogeneous group of dementias commonly called vascular dementia (VAD). In this study rosuvastatin protected the brain in mice from cerebral ischemia A mechanism by which rosuvastatin may prevent dementia is by protecting the brain from cerebral ischemia.

eNOS = eNOS expression and activity in mice after subcutaneous rosuvastatin; type: in vivo; details: mouse, subcutaneous 2 or 20 mg/kg for 14 days
Text: as §1

cholesterol = details: cited from earlier work

| Structure (SMILES) | performance on neuropsychological tests of attention and psychomotor speed [1] | volume of infarct resulting from subsequent cerebral ischemia (MCAO) [2] | activity of eNOS (eNOS) | expression of eNOS (eNOS) | reducing cholesterol in patients versus other HMG-CoA reductase inhibitors (cholesterol) |
| --- | --- | --- | --- | --- | --- |
| CC[C@H](C)C(=O)O[C@H]1C[C@@H](C)C=C2C=C[C@H](C)[C@H](CC[C@@H]3C[C@@H](O)CC(=O)O3)[C@H]21 [Lovastatin] | small performance decrements | – | – | – | – |
| CC(C)c1nc(N(C)S(C)(=O)=O)nc(-c2ccc(F)cc2)c1/C=C/[C@@H](O)C[C@@H](O)CC(=O)O [rosuvastatin, bis[(E)-7-[4-(4-fluorophenyl-6-isopropyl-2-[methyl(methylsulfonyl)amino]pyrimidin-5-yl]-(3R,5S)3,5-dihydroxyhept-6-enoic acid]calcium salt] | – | reduced | increased | increased | superior |

— patent US20060229321A1, “Rosuvastatin in pre demented states” (priority 2001, published 2006)
